Legend:
[1] = system: diabetes-induced hyperfiltration; details: in vivo; cited from earlier work
[2] = molecular target: insulin (Homo sapiens, UniProt P01308); details: cited from earlier work
[3] = system: rat model of type 1 diabetes; details: cited from earlier work
[4] = system: islet cell; details: cited from earlier work
[5] = system: type 1 diabetes; details: human; cited from earlier work
[6] = Serum insulin and C-peptide levels after nasal administration of combined formulations to rats; assay type: in vivo
Protocol: Test System—Sprague Dawley rats, females; 325 grams are used throughout this study. Rats are anesthetized by isoflurane/O2 mixture. To a first and second group of three rats each is administered vehicle containing C-peptide concentration of 1 and 10 mg/mL as described in Example 1 to which is added 0.1% benzallconium chloride as a preservative. To a third and fourth group of 3 rats each is administered vehicle containing C-peptide concentration of 1 and 10 mg/mL as described above to which is added 45 mg/mL methyl-beta-cyclodextrin (Sigma-Aldrich). […]
Analysis Procedure—The serum was frozen at approximately −70° C. in pre-labeled, plastic tubes, and tightly capped, and stored at approximately −70° C. until ready for testing. […]
Solutions prepared as described in Example 3 were administered nasally to rats and tested as described in Example 2 except with the addition that serum human insulin determinations were made using the Human Insulin ELISA Kit™ from Diagnostic Systems Laboratories, Inc, Webster, Tex. The relative molar ratios of insulin to C-peptide in serum for each formulation was calculated by taking the ratio of the insulin concentration to the C-peptide concentration at a fixed time point. In Table 2 below, ratios of the concentrations of insulin and C-peptide for concentrations measured at two time points, namely 20 min. and 40 min. post nasal instillation. […]

[7] = system: patients with early-stage type 1 diabetic neuropathy; details: treatment for 6 months; cited from earlier work
[8] = system: normal and diabetic mice; details: repressed by insulin; cited from earlier work
[9] = in vivo, inhaled or intranasal; cited from earlier work

Sequence of insulin (P01308 25-54 limits assumed, species assumed): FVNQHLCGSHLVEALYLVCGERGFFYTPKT
Sequence of insulin (P01308 90-110 limits assumed, species assumed): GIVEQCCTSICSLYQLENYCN

| Substance | effect on diabetes-induced hyperfiltration, renal hypertrophy and albuminuria [1] | effect on insulin aggregation [2] | effect on neuropathy [3] | effect on islet cell apoptosis [4] | effect on diabetes-induced renal and nerve dysfunction [5] | rate of absorption relative to insulin [6] | effect on sensory nerve function [7] | antithrombotic effects [8] | systemic bioavailability by intranasal route [9] [%] |
| --- | --- | --- | --- | --- | --- | --- | --- | --- | --- |
| EVARQ | reduce diabetes-induced hyperfiltration, as well as renal hypertrophy and albuminuria | – | – | – | – | – | – | – | – |
| Proinsulin C-Peptide (55-89), human | reduce diabetes-induced hyperfiltration, as well as renal hypertrophy and albuminuria | elicit disaggregation of insulin | improves neuropathy | decreases islet cell apoptosis | amelioration of diabetes-induced renal and nerve dysfunction | slightly, but not significantly, more rapidly than insulin | improved sensory nerve function | exerts antithrombotic effects | – |
| salmon calcitonin | – | – | – | – | – | – | – | – | 3 |

From patent publication US20120270778A1, “Compositions and Methods for Non-Invasive Treatment of Chronic Complications of Diabetes” (Aegis Therapeutics LLC, priority 2009, published 2012)
